The experiment deals with MCH receptor (Macaca fascicularis, UniProt A0A2K5VT41). Nature of the experiment: Calcium mobilization assay (Example 6). In kind it is cell-based, Cynomolgus macaque. An excerpt:
This Example illustrates a representative functional assay for monitoring the response of cells expressing melanin concentrating hormone receptors to melanin concentrating hormone. This assay can also be used to determine if test compounds act as agonists or antagonists of melanin concentrating hormone receptors.
Chinese Hamster Ovary (CHO) cells (American Type Culture Collection; Manassas, Va.) are stably transfected with the MCH expression vector via calcium phosphate precipitation, and are grown to a density of 15,000 cells/well in FALCON™ black-walled, clear-bottomed 96-well plates (#3904, BECTON-DICKINSON, Franklin Lakes, N.J.) in Ham's F12 culture medium (MEDIATECH, Herndon, Va.) supplemented with 10% fetal bovine serum, 25 mM HEPES and 500 μg/mL (active) G418. Prior to running the assay, the culture medium is emptied from the 96 well plates. […]
Fluorescence response is monitored upon the addition of either […] or test compound by a FLIPR™ plate reader (Molecular Devices, Sunnyvale, Calif.) by excitation at 480 nm and emission at 530 nm.
In order to measure the ability of a test compound to antagonize the response of cells expressing MCH receptors to MCH, the EC50 of MCH is first determined. […]
Test compounds are dissolved in DMSO, diluted in 20 μL KRH buffer, and added to cells prepared as described above. […] Just prior to determining the fluorescence response, 100 μL human MCH diluted in KRH buffer to 2×EC50 is automatically added by the FLIPR instrument to each well of the 96 well plate for a final sample volume of 200 μL and a final MCH concentration of EC50. […] Typically, antagonists of the MCH receptor decrease the fluorescence response by about 20%, preferably by about 50%, and most preferably by at least 80% as compared to matched controls. IC50 values for MCHR antagonists are determined using SIGMAPLOT software (SPSS Inc., Chicago, Ill.) and standard techniques. […]
(In general: Calcium assays in cells follow changes in intracellular calcium, usually with a dye or a luminescent sensor.)

In general, EC50 refers to the concentration that produces a half-maximal response.

Where two headings read alike, the source gives them in different places.

Chain of MCH receptor (A0A2K5VT41 70-422): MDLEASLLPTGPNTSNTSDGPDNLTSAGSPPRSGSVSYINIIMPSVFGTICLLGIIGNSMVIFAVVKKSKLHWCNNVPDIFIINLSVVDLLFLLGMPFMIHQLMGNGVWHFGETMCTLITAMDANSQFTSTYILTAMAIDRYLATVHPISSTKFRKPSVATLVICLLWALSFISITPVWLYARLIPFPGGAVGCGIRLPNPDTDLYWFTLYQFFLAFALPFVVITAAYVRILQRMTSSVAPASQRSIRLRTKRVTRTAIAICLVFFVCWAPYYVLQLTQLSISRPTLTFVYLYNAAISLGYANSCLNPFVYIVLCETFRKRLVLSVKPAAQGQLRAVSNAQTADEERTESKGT

As for `COc1cc(N2CCN(C(C)c3ccnc4ccccc34)CC2)ccc1Cl` (stereo not drawn) [Example 2, 4-{1-[4-(4-chloro-3-methoxyphenyl)piperazin-1-yl]ethyl}quinoline], the EC50 was under 1000 nM.
Still for that read-out and setting: for `COc1cc(N2CCN(C(C)c3ccnc(C)c3C)CC2)ccc1Cl` (stereo not drawn) [Example 1, 1-(4-chloro-3-methoxyphenyl)-4-[1-(2,3-dimethylpyridin-4-yl)-ethyl]-piperazine] the value was under 1000 nM.
On to `Cc1nccc(CN2CCC(O)(c3ccc(Cl)c(C(F)(F)F)c3)CC2)c1C` [Example 3, 4-(4-chloro-3-trifluoromethylphenyl)-1-(2,3-dimethyl-pyridin-4-ylmethyl)-piperidin-4-ol], for which the EC50 (calcium mobilization (FLIPR, Fluo-3) in CHO cells stably transfected with the MCH expression vector, read-out: EC50, determined as described in Example 6) is under 1000 nM.
